Data from patent publication US20240101546A1, “HETEROARYL-ACETYLENES, PHARMACEUTICAL COMPOSITIONS THEREOF, AND THEIR THERAPEUTIC APPLICATIONS” (Eubulus Biotherapeutics Inc., priority 2020, published 2024).
pEC50: −log10 of the molar value.

Tested on: hepatocellular carcinoma cell line Hub-7
Test: Cell proliferation assay, Hub-7 (CELL-TITER GLO)
Assay type: cell-based
Conditions: Hub-7 cells, 24 h incubation, cell viability by CELL-TITER GLO, top concentration 10 μM; read-out: EC50, Inhibition of Hub-7 Cell Proliferation
Experimental: The activity of a compound was determined in a cell proliferation assay using the hepatocellular carcinoma cell line Hub-7. Cells (4,000 cells per well) were seeded in a 96-well tissue culture plate. After incubated overnight, the compound was added at predetermined concentrations, starting with 10 μM and followed by 3-fold serial dilution. After the cells were incubated for 24 h, cell viability was determined using a CELL-TITER GLO® assay. The CELL-TITER GLO® reagent (50 μL) was added to each well and the luminescence was measured by a multimode microplate reader after a brief period of shaking. EC50 values were determined for the compound. The results are summarized in Table 1, wherein A represents a value no greater than 200 nM, B represents a value greater than 200 nM but no greater than 1 μM, C represents a value greater than 1 μM but no greater than 5 μM, and D represents a value greater than 5 μM.

Row | Compound | pEC50
1 | C#Cc1nc(NC(=O)NCc2ccc(-c3c(C(N)=O)ccc4ncsc34)cc2)cs1 [Compound A19, 7-(4-((3-(2-Ethynylthiazol-4-yl)ureido)methyl)phenyl)benzo[d]thiazole-6-carboxamide] | 6.00 to 6.70
2 | C#Cc1nc(C(=O)NCCc2cccc(-c3cccc4c3cnn4C)c2)cs1 [Compound C30, 2-Ethynyl-N-(3-(1-methyl-1H-indazol-4-yl)phenethyl)thiazole-4-carboxamide] | 5.30 to 6.00
3 | C#Cc1nc(C(=O)NCCc2ccc(-c3cccc4nccnc34)cc2)cs1 [Compound C11, 2-Ethynyl-N-(4-(quinoxalin-5-yl)phenethyl)thiazole-4-carboxamide] | 6.00 to 6.70
4 | C#Cc1nc(C(=O)NCc2ccc(C(=O)OC)cc2)cs1 [Compound C117, Methyl 4-((2-ethynylthiazole-4-carboxamido)methyl)benzoate] | 6.00 to 6.70
5 | C#Cc1nc(NC(=O)CCc2ccccc2)cs1 [Compound C123, N-(2-Ethynylthiazol-4-yl)-3-phenylpropanamide] | 6.00 to 6.70
6 | C#Cc1nc(NC(=O)NCc2ccc(-c3cc(C(=O)OC)cc4c3cnn4C)cc2)cs1 [Compound A22, Methyl 4-(4-((3-(2-ethynylthiazol-4-yl)ureido)methyl)phenyl)-1-methyl-1H-indazole-6-carboxylate] | ≥ 6.70
7 | C#Cc1nc(C(=O)NCCc2cccc(-c3cccc4nn(C)cc34)c2)cs1 [Compound C29, 2-Ethynyl-N-(3-(2-methyl-2H-indazol-4-yl)phenethyl)thiazole-4-carboxamide] | 6.00 to 6.70
8 | C#Cc1nc(C(=O)NCCc2cccc(-c3cccc4c3CC(=O)N4C)c2)cs1 [Compound C26, 2-Ethynyl-N-(3-(1-methyl-2-oxoindolin-4-yl)phenethyl)thiazole-4-carboxamide] | 5.30 to 6.00
9 | C#Cc1nc(C(=O)NCc2cccc3ccccc23)cs1 [Compound C113, 2-Ethynyl-N-(naphthalen-1-ylmethyl)thiazole-4-carboxamide] | ≥ 6.70
10 | C#Cc1nc(C(=O)NCCc2ccc(-c3cccc4c3C(=O)C(=O)N4)cc2)cs1 [Compound C14, N-(4-(2,3-Dioxoindolin-4-yl)phenethyl)-2-ethynylthiazole-4-carboxamide] | 6.00 to 6.70
11 | C#Cc1nc(C(=O)NCc2cccc(-c3cccnc3)c2)cs1 [Compound C65, 2-Ethynyl-N-(3-(pyridin-3-yl)benzyl)thiazole-4-carboxamide] | 5.30 to 6.00
12 | C#Cc1nc(C(=O)NCc2ccccc2)co1 [Compound C142, N-Benzyl-2-ethynyloxazole-4-carboxamide] | < 5.30

Now from value to molecule:

Row | pEC50 | Compound
13 | ≥ 6.70 | C#Cc1nc(C(=O)N2CCC(c3ccc(-c4cccc5ncsc45)cc3)CC2)cs1 [Compound D18, (4-(4-(Benzo[d]thiazol-7-yl)phenyl)piperidin-1-yl)(2-ethynylthiazol-4-yl)-methanone]
14 | ≥ 6.70 | C#Cc1nc(C(=O)N2CCC(c3ccc(-c4cccc5nn(C)cc45)cc3)CC2)cs1 [Compound D19, (2-Ethynylthiazol-4-yl)(4-(4-(2-methyl-2H-indazol-4-yl)phenyl)piperidin-1-yl)-methanone]
15 | < 5.30 | C#Cc1nc(C(=O)N2CCCC(O)C2)cs1 (stereo not drawn) [Compound D34, (2-Ethynylthiazol-4-yl)(3-hydroxypiperidin-1-yl)methanone]
16 | ≥ 6.70 | C#Cc1nc(C(=O)N2CCC(c3ccc(-c4cccc5[nH]ncc45)cc3)CC2)cs1 [Compound D21, (4-(4-(1H-Indazol-4-yl)phenyl)piperidin-1-yl)(2-ethynylthiazol-4-yl)methanone]
17 | ≥ 6.70 | C#Cc1nc(C(=O)N2CCN(c3ccc(-c4cccc5ncsc45)cc3C#N)CC2)cs1 [Compound D12, 5-(Benzo[d]thiazol-7-yl)-2-(4-(2-ethynylthiazole-4-carbonyl)piperazin-1-yl)-benzonitrile]
18 | 6.00 to 6.70 | C#Cc1nc(C(=O)N2CCN(c3cccc(-c4cccc5ncsc45)c3)CC2)cs1 [Compound D16, (4-(3-(Benzo[d]thiazol-7-yl)phenyl)piperazin-1-yl)(2-ethynylthiazol-4-yl)-methanone]
